# According to patent US20060029623A1, “Invert emulsions comprising at least one active agent sensitive to water and cosmetic/dermatological applications thereof” (GALDERMA RESEARCH & DEVELOPMENT, S.N.C., priority 2003, published 2006):
# Test: Maximum solubility of the vitamin D derivative in various excipients (excess active, stirring 12 h, filtration, HPLC assay)
# Type: physicochemical
# Procedure: In the table below are the solubility results for (4E,6E)-7-[3-(3,4-bishydroxymethylbenzyloxy)phenyl]-3-ethylnona4,6-dien-3-ol, a vitamin D analogue, in various excipients:
# These maximum solubilities of (4E,6E)-7-[3-(3,4-bishydroxymethylbenzyloxy)phenyl]-3-ethylnona-4,6-dien-3-ol, a vitamin D analogue, were measured after stirring for 12 h with a magnetic stirrer bar, at room temperature, with an excess of active ingredient in the excipient to be analyzed. The suspension is then filtered (1.2 μm) and then the filtrate is assayed by HPLC.
smiles,measurement,setting,value
"CC/C(=C\C=C\C(O)(CC)CC)c1cccc(OCc2ccc(CO)c(CO)c2)c1 [Compound 1, (4E,6E)-7-[3-(3,4-bishydroxymethyl-benzyloxy)phenyl]-3-ethylnona-4,6-dien-3-ol]","Solubility, Concentration in % (w/w)","in Cetiol SN, room temperature",<0.1 % (w/w)
same,"Solubility, Concentration in % (w/w)","in Crodamol IPP, room temperature",0.2 % (w/w)
same,"Solubility, Concentration in % (w/w)","in Ethanol Rectapur, room temperature",23.3 % (w/w)
same,"Solubility, Concentration in % (w/w)","in Eutanol G, room temperature",0.5 % (w/w)
same,"Solubility, Concentration in % (w/w)","in Glycerine, room temperature",<0.05 % (w/w)
same,"Solubility, Concentration in % (w/w)","in Marcol 172, room temperature",<0.05 % (w/w)
same,"Solubility, Concentration in % (w/w)","in Miglyol 812, room temperature",0.4 % (w/w)
same,"Solubility, Concentration in % (w/w)","in PEG 400, room temperature",17.8 % (w/w)
same,"Solubility, Concentration in % (w/w)","in Primol 352, room temperature",<0.05 % (w/w)
same,"Solubility, Concentration in % (w/w)","in Propylene glycol, room temperature",6.7 % (w/w)
same,"Solubility, Concentration in % (w/w)","in Silicone DC 200, room temperature",<0.05 % (w/w)
same,"Solubility, Concentration in % (w/w)","in Tegosoft TN, room temperature",0.3 % (w/w)
same,"Solubility, Concentration in % (w/w)","in Transcutol, room temperature",27.0 % (w/w)
same,"Solubility, Concentration in % (w/w)","solution pH 4, room temperature",<0.05 % (w/w)
same,"Solubility, Concentration in % (w/w)","solution pH 7, room temperature",<0.05 % (w/w)
